This note sets out measurements from ChEMBL document CHEMBL1139391, “Synthesis and structure-activity relationship of benzetimide derivatives as human CXCR3 antagonists” (Bioorg Med Chem Lett, 2008).

Where only a bound is given, the exact number is not on record here.

In experiment [1] the target is T1, C-X-C chemokine receptor type 3 (Homo sapiens, UniProt P49682).
T1 sequence (P49682 whole entry): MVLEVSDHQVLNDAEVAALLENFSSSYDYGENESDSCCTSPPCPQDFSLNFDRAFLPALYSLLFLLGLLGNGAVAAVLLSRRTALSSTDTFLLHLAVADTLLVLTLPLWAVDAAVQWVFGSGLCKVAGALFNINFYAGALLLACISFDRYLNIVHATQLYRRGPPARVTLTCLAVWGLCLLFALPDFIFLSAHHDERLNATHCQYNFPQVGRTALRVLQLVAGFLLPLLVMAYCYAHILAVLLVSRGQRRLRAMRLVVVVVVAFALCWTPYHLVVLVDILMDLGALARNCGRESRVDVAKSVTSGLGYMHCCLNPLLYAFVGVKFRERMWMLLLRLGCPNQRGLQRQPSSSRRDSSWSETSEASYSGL
Nature of the experiment: Antagonist activity at human CXCR3 expressed in CHO cells assessed as inhibition of ITAC-stimulated [35S]GTPgammaS binding pretreated 30 mins before ITAC challenge. In kind it is functional, cell-based. (GTPγS resists hydrolysis and so accumulates on activated G proteins.)

Experiment [2] concerns the target T2, Muscarinic acetylcholine receptor M2 (Homo sapiens, UniProt P08172).
T2 sequence (P08172 whole entry): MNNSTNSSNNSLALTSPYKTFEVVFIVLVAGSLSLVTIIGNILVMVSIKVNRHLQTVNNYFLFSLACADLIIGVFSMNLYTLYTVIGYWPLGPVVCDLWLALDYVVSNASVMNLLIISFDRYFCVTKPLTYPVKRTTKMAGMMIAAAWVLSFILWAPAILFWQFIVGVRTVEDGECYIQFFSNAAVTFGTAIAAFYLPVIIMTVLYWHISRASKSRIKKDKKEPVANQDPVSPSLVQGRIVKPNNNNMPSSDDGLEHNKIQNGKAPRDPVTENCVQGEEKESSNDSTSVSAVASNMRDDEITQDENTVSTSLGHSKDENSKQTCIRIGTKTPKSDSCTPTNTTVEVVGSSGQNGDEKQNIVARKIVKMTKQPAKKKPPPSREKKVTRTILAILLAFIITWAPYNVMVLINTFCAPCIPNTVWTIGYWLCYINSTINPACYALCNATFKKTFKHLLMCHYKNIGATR
Nature of the experiment: Binding affinity to human muscarinic M2 receptor.

The target in experiment [3] is Muscarinic acetylcholine receptor M3 (Homo sapiens, UniProt P20309). The experiment can be described thus: Binding affinity to human muscarinic M3 receptor.
Experiment [4] addresses T3, Muscarinic acetylcholine receptor M1 (Homo sapiens, UniProt P11229).
T3 sequence (P11229 whole entry): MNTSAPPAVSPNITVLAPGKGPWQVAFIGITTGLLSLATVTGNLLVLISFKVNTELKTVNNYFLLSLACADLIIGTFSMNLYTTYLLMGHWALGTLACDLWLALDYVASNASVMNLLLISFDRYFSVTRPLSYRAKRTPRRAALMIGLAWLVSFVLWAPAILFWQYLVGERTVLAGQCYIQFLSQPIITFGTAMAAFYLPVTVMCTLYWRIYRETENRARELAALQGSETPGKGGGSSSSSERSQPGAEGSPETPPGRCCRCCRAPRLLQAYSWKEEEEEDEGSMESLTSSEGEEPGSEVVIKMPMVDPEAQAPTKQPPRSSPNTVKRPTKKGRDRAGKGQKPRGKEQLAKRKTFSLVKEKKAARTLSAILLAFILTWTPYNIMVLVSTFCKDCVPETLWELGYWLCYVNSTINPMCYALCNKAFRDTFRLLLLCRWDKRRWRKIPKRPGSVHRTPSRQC
The experiment can be described thus: Binding affinity to human muscarinic M1 receptor.

Chain of Muscarinic acetylcholine receptor M3 (P20309 whole entry): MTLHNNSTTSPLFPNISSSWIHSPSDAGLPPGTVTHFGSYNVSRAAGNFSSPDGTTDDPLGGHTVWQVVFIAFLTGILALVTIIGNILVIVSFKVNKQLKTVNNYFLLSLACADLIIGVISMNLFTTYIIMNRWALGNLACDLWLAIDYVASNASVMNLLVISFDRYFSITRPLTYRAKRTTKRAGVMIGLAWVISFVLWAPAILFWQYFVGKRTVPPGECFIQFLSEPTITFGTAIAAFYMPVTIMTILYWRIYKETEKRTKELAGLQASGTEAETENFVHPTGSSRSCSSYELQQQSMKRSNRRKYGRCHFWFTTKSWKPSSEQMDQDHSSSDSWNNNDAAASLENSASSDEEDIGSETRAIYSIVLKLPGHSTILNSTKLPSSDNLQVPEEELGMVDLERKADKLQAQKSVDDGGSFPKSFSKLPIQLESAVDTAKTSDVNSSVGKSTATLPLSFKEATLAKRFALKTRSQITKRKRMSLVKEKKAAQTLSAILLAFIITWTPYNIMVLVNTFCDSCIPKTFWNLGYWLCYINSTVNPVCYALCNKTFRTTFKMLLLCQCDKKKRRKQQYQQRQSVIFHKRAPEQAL

As a reminder, the IC50 is the point on the concentration scale where inhibition reaches its midpoint. As for `COc1ccc(CN2CCC(C3(c4ccccc4)CCC(=O)NC3=O)CC2)cc1` (racemic), the half-inhibitory concentration (IC50) in experiment [1] is 4.27 µM.

As to `CC(=O)N1CCCC(c2ccccc2)(C2CCN(Cc3ccc(Br)cc3)CC2)C1` (racemic), in experiment [1], the IC50 worked out at 0.14 µM.

Take `CCC(=O)N1CCCC(c2ccccc2)(C2CCN(Cc3ccc(Br)cc3)CC2)C1` (racemic): in experiment [1], the IC50 worked out at 0.29 µM.

In the case of `O=C1CCC(c2ccccc2)(C2CCN(Cc3ccc(Br)cc3)CC2)C(=O)N1` (racemic), the IC50 in experiment [1] came to 0.78 µM.

In the case of `NS(=O)(=O)N1CCCC(c2ccccc2)(C2CCN(Cc3ccc(Br)cc3)CC2)C1` (racemic), the IC50 in experiment [1] stood at 0.21 µM.

Take `Cc1ccc(CN2CCC(C3(c4ccccc4)CCC(=O)NC3=O)CC2)cc1` (racemic) [MELETIMIDE]: in experiment [1], the concentration for half-maximal inhibition (IC50) turned out to be 2.4 µM.

With `O=C1CCC(c2ccccc2)(C2CCN(Cc3ccccc3)CC2)C(=O)N1` (stereo in doubt; (-)-3a) [BENZETIMIDE], the IC50 in experiment [2], in experiment [1] (cho), in experiment [3] and in experiment [4] was above 10 µM each time.

On to `NC(=O)CN1CCCC(c2ccccc2)(C2CCN(Cc3ccc(Br)cc3)CC2)C1` (racemic), for which the IC50 in experiment [1] came to 0.08 µM.

`O=C1CCC(c2ccc(F)cc2F)(C2CCN(Cc3ccc(Br)cc3)CC2)C(=O)N1` (single isomer, unassigned; (+)): the IC50 is below 0.001 µM in experiment [2], 0.33 µM in experiment [1], below 0.001 µM in experiment [3] and below 0.001 µM in experiment [4].

For the molecule `O=C1CCC(c2ccccc2)(C2CCN(Cc3ccccc3)CC2)C(=O)N1` (racemic) [BENZETIMIDE], the half-maximal inhibitory concentration (IC50) in experiment [1] is above 10 µM.

Regarding `NC(=O)CN1CCCC(c2ccccc2)(C2CCN(Cc3ccc(Br)cc3)CC2)C1` (stereo in doubt; (+)-47b), the half-inhibitory concentration (IC50) in experiment [2] was above 10 µM; in experiment [1], 0.06 µM; in experiment [3], above 10 µM; in experiment [4], above 10 µM.

Turning to `O=C1CCC(c2ccccc2)(C2CCN(Cc3ccc(Br)cc3)CC2)C(=O)N1` (single isomer, unassigned; (+)), the IC50 in experiment [2] was below 0.001 µM; in experiment [1], 1.33 µM; in experiment [3] it was below 0.001 µM; in experiment [4], below 0.001 µM.

On to `O=C1CCC(c2cccc(Cl)c2)(C2CCN(Cc3ccc(Br)cc3)CC2)C(=O)N1` (racemic), for which the half-inhibitory concentration (IC50) in experiment [1] is 1.45 µM.

Turning to `O=C1CCC(c2ccccc2)(C2CCN(Cc3ccc(Cl)c(C(F)(F)F)c3)CC2)C(=O)N1` (racemic), the IC50 in experiment [1] came to 2.51 µM.

For the molecule `CN1CCN(C(=O)c2cccc(C3(C4CCN(Cc5ccc(Br)cc5)CC4)CCC(=O)NC3=O)c2)CC1` (racemic), the IC50 in experiment [1] is 1.26 µM.

For `O=C(Nc1ccccc1)N1CCCC(c2ccccc2)(C2CCN(Cc3ccc(Br)cc3)CC2)C1` (racemic), the IC50 in experiment [1] came to 0.06 µM.

On to `CC(=O)N1CCCC(c2ccccc2)(C2CCN(Cc3ccc(Br)cc3)CC2)C1` (single isomer, unassigned; (-)), for which the IC50 amounted to 10 µM in experiment [2], 0.11 µM in experiment [1], 3 µM in experiment [3] and 10 µM in experiment [4].

With `O=C(N1CCCC(c2ccccc2)(C2CCN(Cc3ccc(Br)cc3)CC2)C1)C(F)(F)F` (racemic), the 50% inhibitory concentration (IC50) in experiment [1] came out at 0.69 µM.

Turning to `O=C(Nc1ccccc1)N1CCCC(c2ccccc2)(C2CCN(Cc3ccc(Br)cc3)CC2)C1` (single isomer, unassigned; (-)), the IC50 is above 10 µM in experiment [2], 0.03 µM in experiment [1], above 10 µM in experiment [3] and above 10 µM in experiment [4].

As to `O=C1CCC(c2ccccc2)(C2CCN(Cc3ccc(Cl)cc3)CC2)C(=O)N1` (racemic), the IC50 in experiment [1] came out at 0.83 µM.

Consider `O=C1CCC(c2ccc(F)cc2F)(C2CCN(Cc3ccc(Br)cc3)CC2)C(=O)N1` (single isomer, unassigned; (-)), for which the IC50 was above 10 µM in experiment [2], 0.06 µM in experiment [1], above 10 µM in experiment [3] and above 10 µM in experiment [4].

`Brc1ccc(CN2CCC(C3(c4ccccc4)CCCNC3)CC2)cc1` (racemic): in experiment [1], the IC50 was above 10 µM.

For the molecule `O=C1CCC(c2ccc(F)cc2F)(C2CCN(Cc3ccc(Br)cc3)CC2)C(=O)N1` (racemic), the IC50 in experiment [1] was found to be 0.12 µM.

For the molecule `O=C1CCC(c2ccccc2)(C2CCN(Cc3ccccc3)CC2)C(=O)N1` (single isomer, unassigned; (+)) [BENZETIMIDE], the IC50 in experiment [2] is below 0.001 µM; in experiment [1] (cho), above 10 µM; in experiment [3], below 0.001 µM; in experiment [4] it was below 0.001 µM.

With `NC(=O)N1CCCC(c2ccccc2)(C2CCN(Cc3ccc(Br)cc3)CC2)C1` (racemic), the IC50 in experiment [1] came to 0.25 µM.

For the molecule `CCOC(=O)N1CCCC(c2ccccc2)(C2CCN(Cc3ccc(Br)cc3)CC2)C1` (racemic), the IC50 in experiment [1] worked out at 0.32 µM.

Regarding `CCCN1C(=O)CCC(c2ccccc2)(C2CCN(Cc3ccc(Br)cc3)CC2)C1=O` (racemic), the IC50 in experiment [1] was 5.01 µM.

As for `Nc1cccc(C2(C3CCN(Cc4ccc(Br)cc4)CC3)CCC(=O)NC2=O)c1` (racemic), the IC50 in experiment [1] was determined as 0.32 µM.

On to `COc1cccc(C2(C3CCN(Cc4ccc(Br)cc4)CC3)CCC(=O)NC2=O)c1` (racemic), for which, in experiment [1], the IC50 is 1.55 µM.

Turning to `CC(=O)N1CCCC(c2ccccc2)(C2CCN(Cc3ccc(Br)cc3)CC2)C1` (single isomer, unassigned; (+)), the concentration for half-maximal inhibition (IC50) in experiment [2] is above 10 µM; in experiment [1], 2.31 µM; in experiment [3], above 10 µM; in experiment [4], above 10 µM.

In the case of `O=C(Nc1ccccc1)N1CCCC(c2ccccc2)(C2CCN(Cc3ccc(Br)cc3)CC2)C1` (single isomer, unassigned; (+)), the IC50 in experiment [2] is above 10 µM; in experiment [1], 6.31 µM; in experiment [3], above 10 µM; in experiment [4], 8.9 µM.

`COc1ccc(S(=O)(=O)O)cc1C1(C2CCN(Cc3ccc(Br)cc3)CC2)CCC(=O)NC1=O` (racemic): the IC50 in experiment [1] is 0.17 µM.

Turning to `O=C1CCC(c2ccccc2)(C2CCN(Cc3ccc(F)cc3)CC2)C(=O)N1` (racemic), in experiment [1], the IC50 worked out at 4.57 µM.

On to `NC(=O)CN1CCCC(c2ccccc2)(C2CCN(Cc3ccc(Br)cc3)CC2)C1` (single isomer, unassigned; (-)), for which the IC50 was determined as 2 µM in experiment [2], 0.81 µM in experiment [1], 1.1 µM in experiment [3] and 5 µM in experiment [4].

As for `O=CN1CCCC(c2ccccc2)(C2CCN(Cc3ccc(Br)cc3)CC2)C1` (racemic), the IC50 in experiment [1] was 0.15 µM.

For `O=C1CCC(c2ccc(F)cc2)(C2CCN(Cc3ccc(Br)cc3)CC2)C(=O)N1` (racemic), the half-maximal inhibitory concentration (IC50) in experiment [1] was 1.26 µM.

Regarding `O=C1CCC(c2ccccc2)(C2CCN(Cc3ccc(Cl)cc3Cl)CC2)C(=O)N1` (racemic), the IC50 in experiment [1] came out at 3.16 µM.

Take `COc1ccc(C2(C3CCN(Cc4ccc(Br)cc4)CC3)CCC(=O)NC2=O)cc1` (racemic): the IC50 in experiment [1] came to 3.63 µM.

`O=C(C1CC1)N1CCCC(c2ccccc2)(C2CCN(Cc3ccc(Br)cc3)CC2)C1` (racemic): the IC50 in experiment [1] came to 0.18 µM.

For the molecule `O=C1CCC(c2ccccc2)(C2CCN(Cc3ccc(Cl)c(F)c3)CC2)C(=O)N1` (single isomer, unassigned; (-)), in experiment [1], the IC50 was 0.34 µM.
